Reference: patent US20250154198A1, “PEPTIDE INHIBITORS OF INTERLEUKIN-23 RECEPTOR” (Zealand Pharma A/S, priority 2021, published 2025)
pKi: −log10 of the molar value. *1 amine or outer side, *2 acyl side, *3 side chain or, on linkers, in order; H or OH if unused. Where a SMILES comes first, the peptide text is derived from it. Bridges are numbered along the chain shown (N, C = ends). [ ]: non-standard residue; d: D form. αMeAla(3-pyridyl) = C[C@](N)(Cc1cccnc1)C(=O)O; X10 = C[C@@](Cc1ccc(F)cc1)(N[*:1])C(=O)[*:2]; Trp(1-Me) = Cn1cc(C[C@H](N)C(=O)O)c2ccccc21; Phe(3,4-Me2) = Cc1ccc(C[C@H](N)C(=O)O)cc1C; 2Nal = N[C@@H](Cc1ccc2ccccc2c1)C(=O)O; AEF = NCCOc1ccc(C[C@H](N)C(=O)O)cc1; X1 = O=C(Cc1ccc(CN[*:1])cc1)[*:2]; αMeR = C[C@](N)(CCCNC(=N)N)C(=O)O; αMeL = CC(C)C[C@](C)(N)C(=O)O; CH2COCH2 = O=C(C[*:1])C[*:2]; αMeV = CC(C)[C@](C)(N)C(=O)O; 3Amb = NCc1cccc(C(=O)O)c1; Dab = NCC[C@H](N)C(=O)O

Columns and labels:
[1] = Peptide stability in simulated intestinal fluid (SIF); assay type: in vitro ADME; conditions: pig, Table 3-2, porcine pancreatin, pH 6.8, 37° C., 10 μM; for remaining at 1 h, 10 μM: read-out: SIF (% remaining 1 h); for remaining at 4 h, 10 μM: read-out: SIF (% remaining 4 h)
Experimental: (§1) Determination of Peptide Stability in Simulated Gastric Fluid (SGF) and Simulated Intestinal Fluid (SIF)
(§2) SGF was prepared by dissolving sodium chloride (0.2 g) in 50 mL of water. A volume of 0.7 mL of 10 M HCl was added to adjust the pH of the solution to 1.2 and the volume made up to 100 mL with water. […] SIF was prepared by dissolving monobasic potassium phosphate (0.68 g) in 50 mL of water and adjusting the pH to 6.8 with 1 M NaOH. The volume was subsequently made up to 100 mL with water. 200 mg porcine pancreatin (P1625, Sigma Aldrich) was gently dissolved into 20 mL preheated (37° C.) solution (10 g/L) immediately prior to the incubation.
(§3) The incubation was performed at 37° C. with gentle shaking. […] After the last timepoint, the sampling plate was mixed for 10 min on a shaking table and centrifuged 10 min at 2200 g. 70 μL resulting supernatant was diluted with 150 μL water, mixed and centrifugated before analysis by liquid chromatography high resolution mass spectrometry. […] Percent remaining at each timepoint was calculated relative to timepoint zero based on absolute peak areas.

[2] = Peptide stability in simulated gastric fluid (SGF); assay type: in vitro ADME; conditions: Table 3-3, porcine pepsin, pH 1.2, 37° C., 10 μM; for remaining at 1 h, 10 μM / remaining at 4 h, 10 μM: pig; for remaining at 1 h, 10 μM: read-out: SGF (% remaining 1 h); for remaining at 4 h, 10 μM: read-out: SGF (% remaining 4 h)
Experimental: as §1, §2, §3

human IL-23R = biological target: T1, human IL-23R (Homo sapiens, UniProt Q5VWK5); test: Binding assay (NanoBRET displacement of fluorophore-labelled reference compound) for estimating binding affinity to human IL-23R; conditions: Table 3-1; read-out: Ki hIL-23R
T1 construct: UniProtKB—Q5VWK5, amino acids 22-629; secretion signal of the plasmid (Promega N1371); expressed in transfected cells
T1 sequence (Q5VWK5 22-629): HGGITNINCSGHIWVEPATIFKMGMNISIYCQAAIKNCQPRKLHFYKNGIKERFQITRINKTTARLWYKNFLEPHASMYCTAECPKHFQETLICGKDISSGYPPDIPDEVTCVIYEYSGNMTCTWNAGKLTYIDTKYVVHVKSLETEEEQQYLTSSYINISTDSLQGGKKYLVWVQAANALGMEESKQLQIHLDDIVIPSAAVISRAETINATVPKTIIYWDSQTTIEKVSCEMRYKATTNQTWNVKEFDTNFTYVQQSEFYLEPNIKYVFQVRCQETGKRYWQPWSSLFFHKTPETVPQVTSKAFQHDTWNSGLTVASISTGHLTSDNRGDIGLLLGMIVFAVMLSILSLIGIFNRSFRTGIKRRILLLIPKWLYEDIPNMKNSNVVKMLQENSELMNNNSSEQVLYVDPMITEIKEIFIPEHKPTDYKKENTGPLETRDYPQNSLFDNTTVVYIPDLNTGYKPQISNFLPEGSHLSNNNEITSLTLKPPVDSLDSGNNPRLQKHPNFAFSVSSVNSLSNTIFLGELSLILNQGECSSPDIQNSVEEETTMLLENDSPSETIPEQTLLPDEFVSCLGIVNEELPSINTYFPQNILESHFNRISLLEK

[3] = simulated intestinal fluid (SIF) with porcine pancreatin
[4] = simulated gastric fluid (SGF) with porcine pepsin
[5] = simulated gastric fluid (SGF) with porcine pepsin, 4 h

Structure (SMILES)	remaining at 1 h, 10 μM [1, 3] [%]	remaining at 4 h, 10 μM [1, 3] [%]	remaining at 1 h, 10 μM [2, 4] [%]	remaining at 4 h, 10 μM [2, 5] [%]	further results
CC(C)C[C@]1(C)NC(=O)[C@H](Cc2c[nH]c3ccccc23)NC(=O)[C@H](Cc2c[nH]c3ccccc23)NC(=O)[C@@H]2CSCC(=O)CSC[C@H](NC(=O)[C@H](CO)NC(=O)[C@@H](NC(=O)[C@@H](N)CC(=O)O)CSCC(=O)CSC[C@@H](C(=O)N[C@@H](CCCNC(=N)N)C(N)=O)NC1=O)C(=O)N[C@@H](Cc1c[nH]c3ccccc13)C(=O)N[C@@H](CCC(N)=O)C(=O)N2 [Compound 1, H-DC(1a)SC(2a)WQC(2a)WW[2-Me-Leu]C(1a)R-[NH2]]	–	–	–	–	remaining at 1 h, 10 μM [1]: 0%; remaining at 4 h, 10 μM [1]: 0%; remaining at 1 h, 10 μM [2]: 86%; remaining at 4 h, 10 μM ([2]; 4 h): 68%
CC(=O)N[C@H]1CCCCNC(=O)CC[C@@H](C(=O)N[C@@H](CCCNC(=N)N)C(N)=O)NC(=O)[C@H](CC(C)C)NC(=O)[C@H](Cc2ccc3ccccc3c2)NC(=O)[C@H](Cc2c[nH]c3ccccc23)NC(=O)[C@@H]2CSCC(=O)CSC[C@H](NC(=O)[C@H](CO)NC1=O)C(=O)N[C@@H](Cc1cn(C)c3ccccc13)C(=O)N[C@@H](CCC(N)=O)C(=O)N2 [Compound 27, [Ac]-K(1c)SC(2a)[1-Me-Trp]QC(2a)W[2-Nal]LE(1c)R-[NH2]] (Ac-KSC[Trp(1-Me)]QCW[2Nal]LER-NH2; lactam 1-10; linker 3-6 via CH2COCH2)	0	0	0	0	–
CC(C)C[C@]1(C)NC(=O)[C@H](Cc2ccc3ccccc3c2)NC(=O)[C@H](Cc2ccc(OCCN)cc2)NC(=O)[C@@H]2CSCC(=O)CSC[C@H](NC(=O)[C@H](CO)NC(=O)c3cccc(c3)CNC(=O)CC[C@@H](C(=O)N[C@@](C)(CCCNC(=N)N)C(N)=O)NC1=O)C(=O)N[C@@H](Cc1c[nH]c3ccccc13)C(=O)N[C@@H](CCC(N)=O)C(=O)N2 [Compound 42, [(3-Aminomethyl)benzoyl](1c)*SC(2a)WQC(2a)[Y(2-aminoethoxy)][2-Nal][2-Me-Leu]E(1c)[2-Me-Arg]-[NH2]] ([3Amb]SCWQC[AEF][2Nal][αMeL]E[αMeR]-NH2; linker 3-6 via CH2COCH2; lactam N-10)	–	–	90	–	pKi (human IL-23R): 8.56
CC(=O)N[C@@H](CC(=O)O)C(=O)N[C@H]1CCC(=O)NCCCC[C@@H](C(=O)N[C@@H](CCCNC(=N)N)C(N)=O)NC(=O)[C@](C)(CC(C)C)NC(=O)[C@H](Cc2ccc3ccccc3c2)NC(=O)[C@H](Cc2c[nH]c3ccccc23)NC(=O)[C@@H]2CSCC(=O)CSC[C@H](NC(=O)[C@H]([C@@H](C)O)NC1=O)C(=O)N[C@@H](Cc1c[nH]c3ccccc13)C(=O)N[C@@H](CCC(N)=O)C(=O)N2 [Compound 57, [Ac]-DE(1c)TC(2a)WQC(2a)W[2-Nal][2-Me-Leu]K(1c)R-[NH2]] (Ac-DETCWQCW[2Nal][αMeL]KR-NH2; lactam 2-11; linker 4-7 via CH2COCH2)	7	0	21	1	–

Continued, in another order:

remaining at 1 h, 10 μM [1, 3] [%]	remaining at 4 h, 10 μM [1, 3] [%]	remaining at 1 h, 10 μM [2, 4] [%]	remaining at 4 h, 10 μM [2, 5] [%]	Structure (SMILES)	further results
80	45	61	8	CC(=O)N[C@@H](CC(=O)O)C(=O)N[C@H]1CCC(=O)NCCCC[C@@H](C(=O)N[C@@H](CCC(=O)O)C(=O)N[C@@H](CC(N)=O)C(=O)NCC(N)=O)NC(=O)[C@](C)(CC(C)C)NC(=O)[C@H](Cc2ccc3ccccc3c2)NC(=O)[C@H](Cc2c[nH]c3ccccc23)NC(=O)[C@@H]2CSCC(=O)CSC[C@H](NC(=O)[C@H](CO)NC1=O)C(=O)N[C@@H](Cc1c[nH]c3ccccc13)C(=O)N[C@@H](CCC(N)=O)C(=O)N2 [Compound 58, [Ac]-DE(1c)SC(2a)WQC(2a)W[2-Nal][2-Me-Leu]K(1c)ENG-[NH2]] (Ac-DESCWQCW[2Nal][αMeL]KENG-NH2; lactam 2-11; linker 4-7 via CH2COCH2)	–
69	12	7	0	CC(=O)N[C@@H](CC(=O)O)C(=O)N[C@H]1CCC(=O)NCCCC[C@@H](C(=O)NCC(N)=O)NC(=O)[C@](C)(CC(C)C)NC(=O)[C@H](Cc2ccc3ccccc3c2)NC(=O)[C@H](Cc2c[nH]c3ccccc23)NC(=O)[C@@H]2CSCC(=O)CSC[C@H](NC(=O)[C@H](CO)NC1=O)C(=O)N[C@@H](Cc1c[nH]c3ccccc13)C(=O)N[C@@H](CCC(N)=O)C(=O)N2 [Compound 60, [Ac]-DE(1c)SC(2a)WQC(2a)W[2-Nal][2-Me-Leu]K(1c)G-[NH2]] (Ac-DESCWQCW[2Nal][αMeL]KG-NH2; lactam 2-11; linker 4-7 via CH2COCH2)	–
1	0	59	14	CC(C)C[C@]1(C)NC(=O)[C@H](Cc2ccc3ccccc3c2)NC(=O)[C@H](Cc2ccccc2)NC(=O)[C@@H]2CCNC(=O)CC[C@H](NC(=O)[C@H](CO)NC(=O)Cc3ccc(cc3)CNC(=O)CC[C@@H](C(=O)N[C@@H](CCN)C(N)=O)NC1=O)C(=O)N[C@@H](Cc1c[nH]c3ccccc13)C(=O)N[C@@H](CCC(N)=O)C(=O)N2 [Compound 130, [4-Aminomethyl-phenylacetyl](1c)*SE(2c)WQ[Dab](2c)F[2-Nal][2-Me-Leu]E(1c)[Dab]-[NH2]] ([X1]SEWQ[Dab]F[2Nal][αMeL]E[Dab]-NH2; lactam 3-6, N-10)	–
–	109	–	109	CC[C@H](C)[C@@H]1NC(=O)Cc2ccc(cc2)CNC(=O)CC[C@@H](C(=O)N[C@@H](CCN)C(=O)N[C@@](C)(Cc2cccnc2)C(N)=O)NC(=O)[C@](C)(C(C)C)NC(=O)[C@H](Cc2ccc(C)c(C)c2)NC(=O)[C@H](Cc2ccc(OCCN)cc2)NC(=O)[C@@H]2CCNC(=O)CC[C@H](NC1=O)C(=O)N[C@@H](Cc1c[nH]c3ccccc13)C(=O)N[C@@H](CCC(N)=O)C(=O)N2 [Compound 165, [4-Aminomethyl-phenylacetyl](1c)*IE(2c)WQ[Dab](2c)[Y(2-aminoethoxy)][F(3,4-Me)][2-Me-Val]E(1c)[Dab][2-Me-3-(3-Pyridyl)-Ala]-[NH2]] ([X1]IEWQ[Dab][AEF][Phe(3,4-Me2)][αMeV]E[Dab][αMeAla(3-pyridyl)]-NH2; lactam 3-6, N-10)	–
–	72	–	–	CC[C@H](C)[C@@H]1NC(=O)Cc2ccc(cc2)CNC(=O)CC[C@@H](C(=O)N[C@@H](CCN)C(=O)N[C@@](C)(Cc2cccnc2)C(N)=O)NC(=O)[C@](C)(C(C)C)NC(=O)[C@H](Cc2ccc(C)c(C)c2)NC(=O)[C@](C)(Cc2ccc(F)cc2)NC(=O)[C@@H]2CCNC(=O)CC[C@H](NC1=O)C(=O)N[C@@H](Cc1c[nH]c3ccccc13)C(=O)N[C@@H](CCC(N)=O)C(=O)N2 [Compound 169, [4-Aminomethyl-phenylacetyl](1c)*IE(2c)WQ[Dab](2c)[2-Me-F(4-F)][F(3,4-Me)][2-Me-Val]E(1c)[Dab][2-Me-3-(3-Pyridyl)-Ala]-[NH2]] ([X1]IEWQ[Dab][X10][Phe(3,4-Me2)][αMeV]E[Dab][αMeAla(3-pyridyl)]-NH2; lactam 3-6, N-10)	SGF (% remaining 4 h) ([2]; 4 h): 121%
